The text below walks through data of PMC8041284, “Tunable Methacrylamides for Covalent Ligand Directed Release Chemistry” (Journal of the American Chemical Society, 2021).

Structures are written as SMILES. Read-outs that look alike come from different tables or passages of the source.

In the test the target is BTK (Homo sapiens, UniProt Q06187). As to the kind of experiment: biochemical.
[1] abbreviates: read-out: BTK inhibition (%), 0.75 uM BTK, […] probe 3l, 15 min preincubation.

Sequence of BTK (Q06187 402-655 limits assumed): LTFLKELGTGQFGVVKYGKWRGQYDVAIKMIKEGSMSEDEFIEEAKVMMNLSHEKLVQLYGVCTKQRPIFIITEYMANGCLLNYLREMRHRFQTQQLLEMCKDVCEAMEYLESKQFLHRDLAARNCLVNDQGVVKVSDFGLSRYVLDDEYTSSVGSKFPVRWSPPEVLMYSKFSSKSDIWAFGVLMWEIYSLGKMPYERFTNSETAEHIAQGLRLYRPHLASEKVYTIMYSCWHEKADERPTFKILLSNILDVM

Broadly, the inhibition is the change of the read-out against control, counted positive when it falls. As for `OCc1ccc(-c2ccc(-c3ccc(CO)s3)o2)s1` [PCM-0095348], the inhibition at 10 µM under setting [1] was found to be 1.6%. On to `Cc1cc(F)c(Nc2ncnc3cc(OCc4ccccc4)ccc23)cc1O` [PCM-0095349], for which the inhibition at 10 µM under setting [1] is 46.9%. `CC(=O)Nc1cccc(-n2c(=O)n(C3CC3)c(=O)c3c(Nc4ccc(I)cc4F)n(C)c(=O)c(C)c32)c1` [PCM-0095350]: the inhibition at 10 µM under setting [1] is -10.3%.

As for `O=C(Nc1ccccc1)Nc1ccc(-c2ccc(C(=O)[C@@H]3CCC[C@H]3C(=O)O)cc2)cc1` [PCM-0095351], under setting [1], the inhibition at 10 µM was determined as 22.6%.

Take `OC(CN1CCN(c2cccc(Cl)c2)CC1)C(c1ccccc1)c1ccccc1` (stereo not drawn) [PCM-0095352]: the inhibition at 10 µM under setting [1] was found to be 37.4%.

With `CC(=O)O[C@]1(C(C)=O)CC[C@H]2[C@@H]3C[C@H](C)C4=CC(=O)CC[C@]4(C)[C@H]3CC[C@@]21C` [PCM-0095356], the inhibition at 10 µM under setting [1] is -18.7%. Turning to `O=C1NC(=O)/C(=C/c2ccc3c(c2)OC(F)(F)O3)S1` [PCM-0095357], the inhibition at 10 µM under setting [1] turned out to be 9.7%.

As to `NC[C@@H]1O[C@H](O[C@H]2[C@@H](O)[C@H](O[C@@H]3[C@@H](O)[C@H](N)C[C@H](N)[C@H]3O[C@H]3O[C@H](CN)[C@@H](O)[C@H](O)[C@H]3N)O[C@@H]2CO)[C@H](N)[C@@H](O)[C@@H]1O` [PCM-0095358], the inhibition at 10 µM under setting [1] stood at 4.3%. Still for that read-out and setting: as for `O=C1NC(=O)/C(=C\c2ccc(-c3ccc(F)cc3)o2)S1` [PCM-0095359], the figure is 11%. In the case of `CC(C)c1onc(-c2c(Cl)cccc2Cl)c1COc1ccc(/C=C/c2cccc(C(=O)O)c2)c(Cl)c1` [PCM-0095360], the inhibition at 10 µM under setting [1] was 52.4%. On to `COc1cc2ncnc(Nc3ccc(Cl)cc3F)c2cc1OC` [PCM-0095361], for which the inhibition at 10 µM under setting [1] amounted to 31%. Take `CNC(=O)c1cccc(-c2ccc3c(N4CCOC[C@@H]4C)nc(N4CCOC[C@@H]4C)nc3n2)c1` [PCM-0095362]: the inhibition at 10 µM under setting [1] is -2.8%. On to `NC(=O)c1cccc(-c2cc(Nc3ccc(OC(F)(F)F)cc3)ncn2)c1` [PCM-0095363], for which, under setting [1], the inhibition at 10 µM is -37.9%. As to `CC(C)(O)CC(=O)NCCn1ccc2ncnc(Nc3ccc(Oc4cccc(C(F)(F)F)c4)c(Cl)c3)c21` [PCM-0095364], the inhibition at 10 µM under setting [1] amounted to 73.8%. `COc1cc(NC(=O)c2ccc(-c3ccc(Cl)cc3)o2)cc(OC)c1` [PCM-0095366]: the inhibition at 10 µM under setting [1] amounted to 56.8%. In the case of `Cc1ccc(-n2sc(=O)n(Cc3ccc(F)cc3)c2=O)cc1` [PCM-0095367], under setting [1], the inhibition at 10 µM was -12.5%.

As to `CCN(C(=O)c1c(O)c2c(Cl)cccc2n(C)c1=O)c1ccccc1` [PCM-0095368], under setting [1], the inhibition at 10 µM is 11%.

As to `N#CC[C@@H](C1CCCC1)n1cc(-c2ncnc3[nH]ccc23)cn1` [PCM-0095369], the inhibition at 10 µM under setting [1] amounted to 15.9%.

Regarding `CNC(=O)c1ccc(-c2cnc3ncc(Cc4ccc5ncccc5c4)n3n2)cc1F` [PCM-0095370], under setting [1], the inhibition at 10 µM is -24.7%. `Cn1cc(-c2[nH]c3cc(NC(=O)[C@H](N)C4CCCCC4)cc4c3c2C=NNC4=O)cn1` [PCM-0095372]: the inhibition at 10 µM under setting [1] was determined as 111%. Consider `CCn1c(=O)c2c(nc(/C=C/c3ccc(OC)c(OC)c3)n2C)n(CC)c1=O` [PCM-0095373], for which the inhibition at 10 µM under setting [1] was -25.7%. As for `CN1CCN(C(=O)c2cc3cc(Cl)ccc3[nH]2)CC1` [PCM-0095374], the inhibition at 10 µM under setting [1] was -2.1%. With `CN1CCN(c2nc(C3=C(c4c[nH]c5ccccc45)C(=O)NC3=O)c3ccccc3n2)CC1` [PCM-0095375], the inhibition at 10 µM under setting [1] turned out to be 57.9%. Still for that read-out and setting: under `COC(=O)CCSCc1ccc(-c2onc(C)c2NC(=O)OC(C)c2ccccc2Cl)cc1` (stereo not drawn) [PCM-0095376] stands 20.2%.

As to `O=c1[nH]c2ccc(Cl)cc2c(N[C@@H]2CN3CCC2CC3)c1-c1nc2ccccc2[nH]1` [PCM-0095378], under setting [1], the inhibition at 10 µM is 0%. Take `CCc1c(O)cc(O)c(C(=O)c2ccc(OCCN3CCOCC3)c(OC)c2)c1CC(=O)N(CCOC)CCOC` [PCM-0095381]: the inhibition at 10 µM under setting [1] turned out to be 2.3%. For the compound `Fc1cc(-c2cccc3ncc(-c4cnn(C5CCNCC5)c4)nc23)cc(F)c1CN1CCOCC1` [PCM-0095382], under setting [1], the inhibition at 10 µM stood at 78.6%.

In the case of `COc1ccc(F)c(F)c1C(=O)c1cnc(NC2CCN(S(C)(=O)=O)CC2)nc1N` [PCM-0095383], under setting [1], the inhibition at 10 µM was -9.7%.

As for `c1cncc(CN2CCC(n3ncc4c(N5CCOCC5)nc(-c5ccc6[nH]ccc6c5)nc43)CC2)c1` [PCM-0095384], the inhibition at 10 µM under setting [1] is -27.6%. Consider `O=C(c1ccc(F)cc1)N1CCC[C@H](c2nc(-c3ccc(F)cc3)no2)C1` [PCM-0095385], for which the inhibition at 10 µM under setting [1] is -13.2%. Consider `Cc1cnc(Nc2ccc(N3CCN(C)CC3)cc2)nc1Nc1cccc(S(=O)(=O)NC(C)(C)C)c1` [PCM-0095386], for which the inhibition at 10 µM under setting [1] worked out at 82.8%.

For `CC(C)OC(=O)C1=CN(C(=O)c2ccc(F)c(F)c2)CC(C)(C)c2c1[nH]c1ccccc21` [PCM-0095387], under setting [1], the inhibition at 10 µM turned out to be 3.4%. As for `CCCCOc1ccc(C(=O)Nc2ccc(F)cc2F)cc1` [PCM-0095388], under setting [1], the inhibition at 10 µM was -5.4%.

Take `C[C@H](NC(=O)/C(C#N)=C/c1cccc(Br)n1)c1ccccc1` [PCM-0095390]: under setting [1], the inhibition at 10 µM amounted to 12.4%. Regarding `CC1(C)CC(O)CC(C)(C)N1[O]` [PCM-0095391], the inhibition at 10 µM (read-out: BTK inhibition (%)) came to 10.3%. Regarding `NC(=O)N1CCC(CC(=O)N2CCC([C@H]3c4ncc(Br)cc4CCc4cc(Cl)cc(Br)c43)CC2)CC1` [PCM-0095392], the inhibition at 10 µM under setting [1] stood at 32.7%. Consider `COc1ccc2c(c1)c(C1=C(c3c[nH]c4ccccc34)C(=O)NC1=O)cn2CCCN(C)C` [PCM-0095393], for which the inhibition at 10 µM under setting [1] was found to be 24.8%. With `c1ccc(NCc2ccc(CNc3ccccn3)cc2)nc1` [PCM-0095395], the inhibition at 10 µM under setting [1] is -4.8%.

As to `COc1cc(CCc2cc(NC(=O)c3ccc(N4C[C@@H](C)N[C@@H](C)C4)cc3)n[nH]2)cc(OC)c1` [PCM-0095396], under setting [1], the inhibition at 10 µM is 58.6%. Same read-out and setting: under `Cc1cc(C)c(Nc2ccnc(Nc3ccc(C#N)cc3)n2)c(C)c1` [PCM-0095398] stands 7%; under `C[C@]12CC[C@H](O)CC1=CC[C@@H]1[C@@H]2CC[C@]2(C)C(n3cnc4ccccc43)=CC[C@@H]12` [PCM-0095399], 0%; under `CC(NC(=O)c1ccccc1N=Cc1c(O)ccc2ccccc12)c1ccccc1` (stereo not drawn) [PCM-0095400], 9%. Regarding `CCCC(=O)Nc1cccc(NC(=O)c2ccccc2Br)c1` [PCM-0095401], the inhibition at 10 µM under setting [1] came to 19.5%. Same read-out and setting: under `c1ccc(-c2[nH]ncc2-c2ccnc3ccccc23)nc1` [PCM-0095402] stands 14.5%; under `CC(C)c1ccc(NC(=O)Cn2cnc3c2c(=O)n(C)c(=O)n3C)cc1` [PCM-0095403], -12.5%; under `CN1CCN(c2cccc(Nc3nc4c(-c5ccc(S(C)(=O)=O)cc5)cccn4n3)c2)CC1` [PCM-0095404], 41.4%. As to `O=C(O)CNC(=O)c1c(O)c2ccccc2n(Cc2ccccc2)c1=O` [PCM-0095405], under setting [1], the inhibition at 10 µM is -23.3%. The same measure, in the same setting: under `Cc1c(CN2CCN(C(=O)[C@H](C)O)CC2)sc2c(N3CCOCC3)nc(-c3cnc(N)nc3)nc12` [PCM-0095406] stands 75.2%. Consider `N#Cc1c(O)c2c(-c3ccc(-c4ccccc4O)cc3)csc2[nH]c1=O` [PCM-0095407], for which the inhibition at 10 µM under setting [1] was 51.7%. As to `CS(=O)(=O)N1CCc2c(-c3cnc(N)nc3)nc(N3CCOCC3)nc21` [PCM-0095409], under setting [1], the inhibition at 10 µM was -5.5%. Turning to `O=C(Cc1ccc(-c2ccc(OCCN3CCOCC3)cc2)cn1)NCc1ccccc1` [PCM-0095410], under setting [1], the inhibition at 10 µM is -2.8%.
